Experimental data as given in patent US20230085307A1, “PYRIDAZINONE COMPOUND AND HERBICIDE” (NISSAN CHEMICAL CORPORATION, priority 2019, published 2023).

Key:
Italian ryegrass [1] = test: Test Example 4: herbicidal effect by soil treatment (Table 19, symbol K); type: in vivo, Italian ryegrass (Lolium multiflorum); settings: amount of applied herbicide 320 g/ha
Summary of the method: (§1)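 Scoring uses the grading scale of an earlier test, three weeks post-application. Treatment consists of spraying a diluted emulsion formulation across the surface of sterilized diluvial soil in which seeds are buried near 1.5 cm deep; boxes are kept in a greenhouse between 25° C. and 30° C.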

blackgrass [2] = test: Test Example 4: herbicidal effect by soil treatment (Table 19, symbol J); type: in vivo, blackgrass (Alopecurus myosuroides); settings: amount of applied herbicide 320 g/ha
Summary of the method: as §1

blackgrass [3] = test: Test Example 5: herbicidal effect by foliage application, plastic box (Table 20, symbol J); type: in vivo, blackgrass (Alopecurus myosuroides); settings: foliage application, 320 g/ha, evaluated three weeks after application
Summary of the method: (§2)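 Post-emergence foliar test in sterilized diluvial soil. Compound applied as water-diluted emulsion at a predetermined rate to 14-day-old plants; evaluation at three weeks.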

windgrass [4] = test: Test Example 4: herbicidal effect by soil treatment (Table 19, symbol L); type: in vivo, windgrass (Apera spica-venti); settings: amount of applied herbicide 320 g/ha
Summary of the method: as §1

redroot pigweed [5] = test: Test Example 5: herbicidal effect by foliage application, plastic box (Table 20, symbol N); type: in vivo, redroot pigweed (Amaranthus retroflexus); settings: foliage application, 320 g/ha, evaluated three weeks after application
Summary of the method: as §2

lambsquarters [6] = test: Test Example 5: herbicidal effect by foliage application, plastic box (Table 20, symbol O); type: in vivo, lambsquarters (Chenopodium album); settings: foliage application, 320 g/ha, evaluated three weeks after application
Summary of the method: as §2

barnyard grass [7] = test: Test Example 4: herbicidal effect by soil treatment (Table 19, symbol H); type: in vivo, barnyard grass (Echinochloa crus-galli); settings: amount of applied herbicide 320 g/ha
Summary of the method: as §1

barnyard grass [8] = test: Test Example 3: herbicidal effect by foliage application, Wagner pot (Table 18, symbol H); type: in vivo, barnyard grass (Echinochloa crus-galli); settings: amount of applied herbicide 320 g/ha
Summary of the method: (§3)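 Plants were sown in alluvial soil held under 0.1–0.5 cm standing water and grown 14 days in a greenhouse at 25–30 °C. An emulsifiable formulation, water-diluted to the set dose, was then sprayed onto the foliage, and effects were scored three weeks later using previously defined criteria.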

oval-leafed pondweed = test: Test Example 1: herbicidal activity, application before weed generation under submerged conditions (Table 16, symbol C); type: in vivo, oval-leafed pondweed (Monochoria vaginalis); settings: 320 g/ha applied herbicide
Summary of the method: (§4)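 Alluvial soil was flooded to 4 cm depth, weed seeds were sown mixed and 2.5-leaf rice seedlings were transplanted. On sowing day, the compound's emulsion, diluted in water to a set dose, was applied to the water surface. Plants grew at 25–30 °C and were scored 0–5 after three weeks.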

southern crabgrass [9] = test: Test Example 4: herbicidal effect by soil treatment (Table 19, symbol F); type: in vivo, southern crabgrass (Digitaria ciliaris); settings: amount of applied herbicide 320 g/ha
Summary of the method: as §1

Italian ryegrass [10] = test: Test Example 5: herbicidal effect by foliage application, plastic box (Table 20, symbol K); type: in vivo, Italian ryegrass (Lolium multiflorum); settings: foliage application, 320 g/ha, evaluated three weeks after application
Summary of the method: as §2

Chinese sprangletop = test: Test Example 3: herbicidal effect by foliage application, Wagner pot (Table 18, symbol D); type: in vivo, chinese sprangletop (Leptochloa chinensis); settings: amount of applied herbicide 320 g/ha
Summary of the method: as §3

green foxtail [11] = test: Test Example 4: herbicidal effect by soil treatment (Table 19, symbol G); type: in vivo, green foxtail (Setaria viridis); settings: amount of applied herbicide 320 g/ha
Summary of the method: as §1

velvetleaf [12] = test: Test Example 5: herbicidal effect by foliage application, plastic box (Table 20, symbol M); type: in vivo, velvetleaf (Abutilon theophrasti); settings: foliage application, 320 g/ha, evaluated three weeks after application
Summary of the method: as §2

green foxtail [13] = test: Test Example 5: herbicidal effect by foliage application, plastic box (Table 20, symbol G); type: in vivo, green foxtail (Setaria viridis); settings: foliage application, 320 g/ha, evaluated three weeks after application
Summary of the method: as §2

lambsquarters [14] = test: Test Example 4: herbicidal effect by soil treatment (Table 19, symbol O); type: in vivo, lambsquarters (Chenopodium album); settings: amount of applied herbicide 320 g/ha
Summary of the method: as §1

wild oat [15] = test: Test Example 4: herbicidal effect by soil treatment (Table 19, symbol I); type: in vivo, wild oat (Avena fatua); settings: amount of applied herbicide 320 g/ha
Summary of the method: as §1

chickweed [16] = test: Test Example 5: herbicidal effect by foliage application, plastic box (Table 20, symbol P); type: in vivo, common chickweed (Stellaria media); settings: foliage application, 320 g/ha, evaluated three weeks after application
Summary of the method: as §2

Japanese bulrush = test: Test Example 1: herbicidal activity, application before weed generation under submerged conditions (Table 16, symbol B); type: in vivo, Japanese bulrush (Schoenoplectus juncoides); settings: 320 g/ha applied herbicide
Summary of the method: as §4

wild oat [17] = test: Test Example 5: herbicidal effect by foliage application, plastic box (Table 20, symbol I); type: in vivo, wild oat (Avena fatua); settings: foliage application, 320 g/ha, evaluated three weeks after application
Summary of the method: as §2

velvetleaf [18] = test: Test Example 4: herbicidal effect by soil treatment (Table 19, symbol M); type: in vivo, velvetleaf (Abutilon theophrasti); settings: amount of applied herbicide 320 g/ha
Summary of the method: as §1

late watergrass = test: Test Example 1: herbicidal activity, application before weed generation under submerged conditions (Table 16, symbol A); type: in vivo, late watergrass (Echinochloa oryzicola); settings: 320 g/ha applied herbicide
Summary of the method: as §4

barnyard grass [19] = test: Test Example 5: herbicidal effect by foliage application, plastic box (Table 20, symbol H); type: in vivo, barnyard grass (Echinochloa crus-galli); settings: foliage application, 320 g/ha, evaluated three weeks after application
Summary of the method: as §2

windgrass [20] = test: Test Example 5: herbicidal effect by foliage application, plastic box (Table 20, symbol L); type: in vivo, windgrass (Apera spica-venti); settings: foliage application, 320 g/ha, evaluated three weeks after application
Summary of the method: as §2

redroot pigweed [21] = test: Test Example 4: herbicidal effect by soil treatment (Table 19, symbol N); type: in vivo, redroot pigweed (Amaranthus retroflexus); settings: amount of applied herbicide 320 g/ha
Summary of the method: as §1

southern crabgrass [22] = test: Test Example 5: herbicidal effect by foliage application, plastic box (Table 20, symbol F); type: in vivo, southern crabgrass (Digitaria ciliaris); settings: foliage application, 320 g/ha, evaluated three weeks after application
Summary of the method: as §2

chickweed [23] = test: Test Example 4: herbicidal effect by soil treatment (Table 19, symbol P); type: in vivo, common chickweed (Stellaria media); settings: amount of applied herbicide 320 g/ha
Summary of the method: as §1

persian speedwell [24] = test: Test Example 4: herbicidal effect by soil treatment (Table 19, symbol R); type: in vivo, Persian speedwell (Veronica persica); settings: amount of applied herbicide 320 g/ha
Summary of the method: as §1

rice flat sedge = test: Test Example 3: herbicidal effect by foliage application, Wagner pot (Table 18, symbol E); type: in vivo, rice flat sedge (Cyperus iria); settings: amount of applied herbicide 320 g/ha
Summary of the method: as §3

persian speedwell [25] = test: Test Example 5: herbicidal effect by foliage application, plastic box (Table 20, symbol R); type: in vivo, Persian speedwell (Veronica persica); settings: foliage application, 320 g/ha, evaluated three weeks after application
Summary of the method: as §2

Row | SMILES | herbicidal effect on J: blackgrass (criteria 0-5) (blackgrass [3]) | herbicidal effect on N: redroot pigweed (criteria 0-5) (redroot pigweed [5]) | herbicidal effect on O: lambsquarters (criteria 0-5) (lambsquarters [6]) | herbicidal effect on H: barnyard grass (barnyard grass [8]) | Herbicidal effect on C: oval-leafed pondweed (grade 0-5) (oval-leafed pondweed) | herbicidal effect on K: Italian ryegrass (criteria 0-5) (Italian ryegrass [10]) | herbicidal effect on D: Chinese sprangletop (Chinese sprangletop) | herbicidal effect on M: velvetleaf (criteria 0-5) (velvetleaf [12]) | herbicidal effect on G: green foxtail (criteria 0-5) (green foxtail [13]) | herbicidal effect on P: chickweed (criteria 0-5) (chickweed [16]) | Herbicidal effect on B: Japanese bulrush (grade 0-5) (Japanese bulrush) | herbicidal effect on I: wild oat (criteria 0-5) (wild oat [17]) | Herbicidal effect on A: late watergrass (grade 0-5) (late watergrass) | herbicidal effect on H: barnyard grass (criteria 0-5) (barnyard grass [19]) | herbicidal effect on L: windgrass (criteria 0-5) (windgrass [20]) | herbicidal effect on F: southern crabgrass (criteria 0-5) (southern crabgrass [22]) | herbicidal effect on E: rice flat sedge (rice flat sedge) | herbicidal effect on R: persian speedwell (criteria 0-5) (persian speedwell [25]) | also measured
1 | CCCOc1cccc(-c2sc3ccc(F)cc3c2-c2c(O)c(C)nn(C)c2=O)c1 [2-213] | 3 (Herbicidal rate of 40% or more and less than 70%) | 5 (Herbicidal rate of 90% or more (almost completely withered)) | 4 (Herbicidal rate of 70% or more and less than 90%) | 4 (Herbicidal rate of 70% or more and less than 90%) | 0 (Herbicidal rate of 5% or less (almost no effect)) | 4 (Herbicidal rate of 70% or more and less than 90%) | 3 (Herbicidal rate of 40% or more and less than 70%) | 1 (Herbicidal rate of 5% or more and less than 20%) | 4 (Herbicidal rate of 70% or more and less than 90%) | 5 (Herbicidal rate of 90% or more (almost completely withered)) | 0 (Herbicidal rate of 5% or less (almost no effect)) | 0 (Herbicidal rate of 5% or less (almost no effect)) | 3 (Herbicidal rate of 40% or more and less than 70%) | 3 (Herbicidal rate of 40% or more and less than 70%) | 4 (Herbicidal rate of 70% or more and less than 90%) | 5 (Herbicidal rate of 90% or more (almost completely withered)) | 3 (Herbicidal rate of 40% or more and less than 70%) | 5 (Herbicidal rate of 90% or more (almost completely withered)) | K: Italian ryegrass, herbicidal effect rating (Italian ryegrass [1]): 4 (Herbicidal rate of 70% or more and less than 90%); J: blackgrass, herbicidal effect rating (blackgrass [2]): 0 (Herbicidal rate of 5% or less (almost no effect)); L: windgrass, herbicidal effect rating (windgrass [4]): 0 (Herbicidal rate of 5% or less (almost no effect)); H: barnyard grass, herbicidal effect rating (barnyard grass [7]): 3 (Herbicidal rate of 40% or more and less than 70%); F: southern crabgrass, herbicidal effect rating (southern crabgrass [9]): 5 (Herbicidal rate of 90% or more (almost completely withered)); G: green foxtail, herbicidal effect rating (green foxtail [11]): 4 (Herbicidal rate of 70% or more and less than 90%); O: lambsquarters, herbicidal effect rating (lambsquarters [14]): 1 (Herbicidal rate of 5% or more and less than 20%); I: wild oat, herbicidal effect rating (wild oat [15]): 0 (Herbicidal rate of 5% or less (almost no effect)); M: velvetleaf, herbicidal effect rating (velvetleaf [18]): 0 (Herbicidal rate of 5% or less (almost no effect)); N: redroot pigweed, herbicidal effect rating (redroot pigweed [21]): 5 (Herbicidal rate of 90% or more (almost completely withered)); P: chickweed, herbicidal effect rating (chickweed [23]): 3 (Herbicidal rate of 40% or more and less than 70%); R: persian speedwell, herbicidal effect rating (persian speedwell [24]): 5 (Herbicidal rate of 90% or more (almost completely withered))
2 | CCCCCCOc1cccc(-c2sc3ccc(F)cc3c2-c2c(O)c(C)nn(C)c2=O)c1 [2-226] | 0 (Herbicidal rate of 5% or less (almost no effect)) | 5 (Herbicidal rate of 90% or more (almost completely withered)) | 4 (Herbicidal rate of 70% or more and less than 90%) | 4 (Herbicidal rate of 70% or more and less than 90%) | 0 (Herbicidal rate of 5% or less (almost no effect)) | 0 (Herbicidal rate of 5% or less (almost no effect)) | 3 (Herbicidal rate of 40% or more and less than 70%) | 4 (Herbicidal rate of 70% or more and less than 90%) | 0 (Herbicidal rate of 5% or less (almost no effect)) | 4 (Herbicidal rate of 70% or more and less than 90%) | 0 (Herbicidal rate of 5% or less (almost no effect)) | 0 (Herbicidal rate of 5% or less (almost no effect)) | 2 (Herbicidal rate of 20% or more and less than 40%) | 0 (Herbicidal rate of 5% or less (almost no effect)) | 5 (Herbicidal rate of 90% or more (almost completely withered)) | 0 (Herbicidal rate of 5% or less (almost no effect)) | 3 (Herbicidal rate of 40% or more and less than 70%) | 0 (Herbicidal rate of 5% or less (almost no effect)) | herbicidal effect on K: Italian ryegrass (Italian ryegrass [1]): 0 (Herbicidal rate of 5% or less (almost no effect)); herbicidal effect on J: blackgrass (blackgrass [2]): 0 (Herbicidal rate of 5% or less (almost no effect)); herbicidal effect on L: windgrass (windgrass [4]): 0 (Herbicidal rate of 5% or less (almost no effect)); herbicidal effect on H: barnyard grass (barnyard grass [7]): 0 (Herbicidal rate of 5% or less (almost no effect)); herbicidal effect on F: southern crabgrass (southern crabgrass [9]): 0 (Herbicidal rate of 5% or less (almost no effect)); herbicidal effect on G: green foxtail (green foxtail [11]): 0 (Herbicidal rate of 5% or less (almost no effect)); herbicidal effect on O: lambsquarters (lambsquarters [14]): 0 (Herbicidal rate of 5% or less (almost no effect)); herbicidal effect on I: wild oat (wild oat [15]): 0 (Herbicidal rate of 5% or less (almost no effect)); herbicidal effect on M: velvetleaf (velvetleaf [18]): 0 (Herbicidal rate of 5% or less (almost no effect)); herbicidal effect on N: redroot pigweed (redroot pigweed [21]): 3 (Herbicidal rate of 40% or more and less than 70%); herbicidal effect on P: chickweed (chickweed [23]): 0 (Herbicidal rate of 5% or less (almost no effect)); herbicidal effect on R: persian speedwell (persian speedwell [24]): 0 (Herbicidal rate of 5% or less (almost no effect))
